How the values were obtained:
AML 052308 cells = test: cells; conditions: read-out: LC50
Text: Derivatives were screened for antileukemic activity against AML cells in culture (See FIGS. 1-7).

Compound | CC50 (AML 052308 cells) | CC50 (NCI-H226) | CC50 (COLO 205) | CC50 (RXF 393) | CC50 (NCI/ADR-RES) | CC50 (ACHN) | CC50 (SF-539) | CC50 (HT29) | CC50 (RPMI-8226) | CC50 (OVCAR-3) | CC50 (MDA-MB-468) | CC50 (HCT-116) | CC50 (KM12)
C=C1C(=O)O[C@H]2[C@H]1CC/C(COC(=O)Nc1n[nH]c(SC)n1)=C\CC[C@@]1(C)O[C@@H]21 [JVM 64, ((1aR,7aS,10aS,10bS,E)-1a-methyl-8-methylene-9-oxo-1a,2,3,6,7,7a,8,9,10a,10b-decahydrooxireno[2′,3′:9,10]cyclodeca[1,2-b]furan-5-yl)methyl-(5-(methylthio)-1H-1,2,4-triazol-3-yl)carbamate] | 7.4 µM | – | – | – | – | – | – | – | – | – | – | – | –
C=C1C(=O)O[C@H]2[C@H]1CC/C(COC(=O)NCCO)=C\CC[C@@]1(C)O[C@@H]21 [JVM 2-50] | – | > 100 µM | 50.7 µM | 62.5 µM | > 100 µM | 71.1 µM | 56.2 µM | ≥ 100 µM | > 100 µM | 47.3 µM | 49.1 µM | – | –
C=C1C(=O)O[C@H]2[C@H]1CC/C(COC(=O)NC)=C\CC[C@@]1(C)O[C@@H]21 [JVM 2-57] | – | 96.1 µM | – | 44.1 µM | > 100 µM | 43.3 µM | 42.9 µM | 57 µM | 90.3 µM | 34.3 µM | 49 µM | 33.6 µM | 55.9 µM
C=C1C(=O)O[C@H]2[C@H]1CC/C(COC(=O)NCCN1CCCCC1)=C\CC[C@@]1(C)O[C@@H]21 [JVM 2-13] | – | > 100 µM | 7.75 µM | 37.3 µM | > 100 µM | 45.6 µM | 48.4 µM | 50.4 µM | – | – | 28.5 µM | – | 61.6 µM
C=C1C(=O)O[C@H]2[C@H]1CC/C(COC(=O)OCCCN1CCCCC1)=C\CC[C@@]1(C)O[C@@H]21 [JVM 2-26] | 5 µM | – | – | – | – | – | – | – | – | – | – | – | –
C=C1C(=O)O[C@H]2[C@H]1CC/C(COC(=S)n1ccnc1)=C\CC[C@@]1(C)O[C@@H]21 [JVM 66] | 2.6 µM | – | – | – | – | – | – | – | – | – | – | – | –
C=C1C(=O)O[C@H]2[C@H]1CC/C(COC(=O)CCC(=O)N1CCC(C)CC1)=C\CC[C@@]1(C)O[C@@H]21 [JVM 2-70] | – | 76.1 µM | 31.9 µM | 9.41 µM | 96 µM | 43.5 µM | – | 44.5 µM | > 100 µM | 32.5 µM | – | 11.9 µM | 56.6 µM
C=C1C(=O)O[C@H]2[C@H]1CC/C(COC(=O)N1CCC(F)(F)CC1)=C\CC[C@@]1(C)O[C@@H]21 [JVM 2-66] | – | 10.9 µM | 8.44 µM | 5.33 µM | 69.5 µM | – | 12.3 µM | 40.3 µM | > 100 µM | 9.62 µM | 11.5 µM | 7.75 µM | 54.5 µM
C=C1C(=O)O[C@H]2[C@H]1CC/C(COC(=O)N1CCN(C)CC1)=C\CC[C@@]1(C)O[C@@H]21 [JVM 2-44] | – | > 100 µM | 64.8 µM | 48.6 µM | > 100 µM | 52.6 µM | 55.1 µM | 62 µM | – | 42.3 µM | 48.7 µM | 48 µM | 68.9 µM

From patent US9469650B2, “Melampomagnolide B derivatives” (BOARD OF TRUSTEES OF THE UNIVERSITY OF ARKANSAS, priority 2013, dated 2016)
